Where “and” joins values, the source holds several entries; their conditions need not be identical. Equal entries are not always repeated. Where two headings read alike, the source gives them in different places.
System: C. difficile
Assay type: cell-based
Settings: 37° C. 24 h; for concentration added at which a mass of bacteria and the surrounding medium exhibited yellow color / concentration added at which a mass of bacteria exhibited yellow color / concentration added at which a mass of bacteria was found: added to medium of Table 1

Structure (SMILES) | concentration added at which a mass of bacteria and the surrounding medium exhibited yellow color | concentration added at which a mass of bacteria exhibited yellow color | concentration added at which a mass of bacteria was found | Yellow coloration degree (dithiothreitol added 0.075 g/L) | Yellow coloration degree (dithiothreitol added 0.16 g/L) | Yellow coloration degree (dithiothreitol added 0.32 g/L) | Yellow coloration degree (dithiothreitol added 0.60 g/L) | Yellow coloration degree (dithiothreitol added 0.90 g/L) | Yellow coloration degree (dithiothreitol added 1.2 g/L) | Yellow coloration degree (dithiothreitol added 1.5 g/L) | Yellow coloration degree (dithiothreitol added 1.8 g/L) | Yellow coloration degree (ascorbic acid added 0.075 g/L) | Yellow coloration degree (ascorbic acid added 0.16 g/L) | Yellow coloration degree (ascorbic acid added 0.32 g/L) | Yellow coloration degree (ascorbic acid added 0.64 g/L) | Yellow coloration degree (ascorbic acid added 1.8 g/L) | Yellow coloration degree (ascorbic acid added 2.7 g/L) | Yellow coloration degree (ascorbic acid added 3.6 g/L) | Yellow coloration degree (ascorbic acid added 4.5 g/L)
O[C@H](CS)[C@H](O)CS (racemic) [dithiothreitol] | 0.6 g/L and 0.9 g/L | 0.16 to 1.2 g/L | 0.075 to 1.5 g/L | 1 | 2 | 2 | 3 | 3 | 2 | 1 | 0 | – | – | – | – | – | – | – | –
O=C1O[C@H]([C@@H](O)CO)C(O)=C1O [ascorbic acid] | 0.32 to 1.8 g/L | 0.16 to 2.7 g/L | 0.075 to 3.6 g/L | – | – | – | – | – | – | – | – | 1 | 2 | 3 | 3 | 3 | 2 | 1 | 0
